The source of these data is patent US4117148A, “2,9-Dioxatricyclo [4,3,1,0,3,7] decane derivatives, processes for their preparation and pharmaceutical compositions thereof” (Kali-Chemie Pharma GmbH., priority 1977, dated 1978).

Read-outs that look alike come from different tables or passages of the source. Some results are limits rather than exact numbers.

Series [1] deals with phenyl benzoquinone syndrome in mice. The series can be described thus: Phenyl benzoquinone syndrome (writhing test), analgesic activity. The class given is in vivo, mouse. The following applies: for ED50: Mus musculus, po, read-out: Analgesic activity, inhibition of PBC-syndrome, ED50. For orientation: In writhing tests, fewer writhes than in controls are read as antinociception.

Series [2] deals with rat's paw. The series can be described thus: Randall-Selitto-Test, pressure pain threshold in the rat's paw (antiphlogistic/analgesic). The following applies: for ED50: Rattus norvegicus, sc. The class given is in vivo.
Series [3] can be described thus: Acute toxicity, LD50 after i.p. administration. Format: in vivo. The conditions noted are these: mouse, in vivo, ip, mice. The protocol: (§1) The toxicity of the 3-azidomethyl-2,9-dioxatricyclo[4,3,1,0^3,7 ] decanes of the formula (I) is extremely low. The LD50 in mice is in the range of between about 500 and about 700 mg/kg, when determined after i.p. administration of the compounds.

The test system of series [4] is mice. The series can be described thus: Acute toxicity, LD50 after i.p. administration. The class given is in vivo. The protocol:
as §1

The mark [5] stands for this setting: normal paw, read-out: Randall Selitto-test ED50, normal paw.
Setting [6] is: oedema bearing paw, read-out: Randall Selitto-test ED50, oedema bearing paw.

Broadly, the ED50 is the dose that gives a 50% effect, or the effect in half of the subjects. As to `COc1ccc2cc([C@H](C)C(=O)O)ccc2c1` [Naproxene, reference compound], the 50% effective dose (ED50) in series [1] (mouse, p.o.) was 30 mg/kg; in series [2] (setting [5]) it was 250 mg/kg; in series [2] (setting [6]), 147 mg/kg.
For `CCCCC1C(=O)N(c2ccccc2)N(c2ccccc2)C1=O` [Phenylbutazone, reference compound], in that order: greater than 30 mg/kg, greater than 100 mg/kg and 58 mg/kg.
By LD50 is commonly meant the dose expected to kill half of the subjects tested. The low end stands for greater toxicity, the high end for lower toxicity. `COC1OC2OC3(CN=[N+]=[N-])C(O)CC(C2C)C13` (stereo not drawn) [XXII, 3-azidomethyl-4α-hydroxy-8-methoxy-10β-methyl-2,9-DTD]: in series [3], the LD50 is 571 mg/kg. In addition, the ED50 in series [1] (mouse, p.o.) is 18.5 mg/kg; in series [2] (setting [5]), greater than 32 mg/kg; in series [2] (setting [6]) it was greater than 32 mg/kg.
In the case of `COc1ccc2c(c1)c(CC(=O)O)c(C)n2C(=O)c1ccc(Cl)cc1` [Indomethazine, reference compound], the ED50 in series [2] (setting [5]) turned out to be 250 mg/kg; in series [2] (setting [6]), 64 mg/kg.
On to `COC1OC2OC3(CN=[N+]=[N-])C(=O)CC(C2C)C13` (stereo not drawn) [XVIII, 3-azidomethyl-8-methoxy-10β-methyl-2,9-DTD-4-one], for which, in series [3], the LD50 is 632 mg/kg. Moreover, the ED50 in series [1] (mouse, p.o.) is less than 56 mg/kg; in series [2] (setting [5]), greater than 100 mg/kg; in series [2] (setting [6]), greater than 100 mg/kg.
Take `C=C1C2OC(OC)C3C1CC(OC(C)=O)C3(CN=[N+]=[N-])O2` (stereo not drawn) [XXV, 3-azidomethyl-4α-acetoxy-8-methoxy-10-methylene-2,9-DTD]: the ED50 in series [1] (mouse, p.o.) was roughly 56 mg/kg; in series [2] (setting [5]) it was 100 mg/kg; in series [2] (setting [6]), 100 mg/kg.
For `CC(=O)Oc1ccccc1C(=O)O` [Apsirin, reference compound], the ED50 is 240 mg/kg in series [1], greater than 700 mg/kg in series [2] (setting [5]) and 440 mg/kg in series [2] (setting [6]).
For `COC1OC2OC3(CN=[N+]=[N-])C(OC(C)=O)CC(C2C)C13` (stereo not drawn) [XXVI, 3-azidomethyl-4α-acetoxy-8-methoxy-10β-methyl-2,9-DTD], in series [4], the LD50 stood at 574 mg/kg. Further, the “Analgesic activity, inhibition of PBC-syndrome, ED50” value in series [1] (mouse, p.o.) is less than 3.2 mg/kg. Besides, in series [2] (s.c., normal paw), the “Randall Selitto-test ED50, normal paw” value is on record as ~ 32 mg/kg. Moreover, the “Randall Selitto-test ED50, oedema bearing paw” value in series [2] (s.c., oedema bearing paw) turned out to be 15 mg/kg.
As for `COC1OC2OC3(CN=[N+]=[N-])C(OC(C)=O)CC(C2C)C13` (stereo not drawn) [X, 3-azidomethyl-4β-acetoxy-8-methoxy-10β-methyl-2,9-DTD], the LD50 in series [3] was 739 mg/kg. The “Analgesic activity, inhibition of PBC-syndrome, ED50” value in series [1] (mouse, p.o.) was ~ 10 mg/kg. For the same molecule, the median effective dose (ED50) in series [2] (setting [5]) is greater than 32 mg/kg. The “Randall Selitto-test ED50, oedema bearing paw” value in series [2] (s.c., oedema bearing paw) was greater than 32 mg/kg.
